Measured values reported in the supplement of paper PMC12592484.

Columns and labels:
Assay in all cases: drug sensitivity score (DSS2, normalised partial AUC of dose-response, 72 h CellTiter-Glo viability) (DSS (dimensionless)); higher = more sensitive (stronger growth inhibition / cytotoxicity); extreme values may be limits of the assay
CAF#3 = tested on: CAF#3 (primary prostate cancer-associated fibroblasts of myCAF-like type)
How it was run: (§1)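 Cells were added to 384-well plates already holding compounds at five doses over a 10,000-fold range: low-passage primary prostate cancer-associated fibroblasts, PF179T, WPMY-1, LNCaP and 22Rv1. Viability was measured 72 h later by CellTiter-Glo 2.0 luminescence and scaled to vehicle and positive-control wells. The drug sensitivity score, computed in BREEZE, is a partial area under the fitted logistic dose–response curve divided by the log of its upper asymptote, with higher scores meaning greater sensitivity.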

CAF#7 = tested on: CAF#7 (primary prostate cancer-associated fibroblasts of myCAF-like type)
How it was run: as §1

CAF#6 = tested on: CAF#6 (primary prostate cancer-associated fibroblasts of iCAF-like type)
How it was run: as §1

LNCAP = tested on: LNCAP
How it was run: as §1

CAF#2 = tested on: CAF#2 (primary prostate cancer-associated fibroblasts of iCAF-like type)
How it was run: as §1

CAF#4 = tested on: CAF#4 (primary prostate cancer-associated fibroblasts of iCAF-like type)
How it was run: as §1

PF179T = tested on: PF179T
How it was run: as §1

CAF#1 = tested on: CAF#1 (primary prostate cancer-associated fibroblasts of myCAF-like type)
How it was run: as §1

CAF#5 = tested on: CAF#5 (primary prostate cancer-associated fibroblasts of myCAF-like type)
How it was run: as §1

WPMY-1 = tested on: WPMY-1
How it was run: as §1

22Rv1 = tested on: 22Rv1
How it was run: as §1

Row | SMILES | drug sensitivity score (CAF#3) | drug sensitivity score (CAF#7) | drug sensitivity score (CAF#6) | drug sensitivity score (LNCAP) | drug sensitivity score (CAF#2) | drug sensitivity score (CAF#4) | drug sensitivity score (PF179T) | drug sensitivity score (CAF#1) | drug sensitivity score (CAF#5) | drug sensitivity score (WPMY-1) | drug sensitivity score (22Rv1)
1 | CS(=O)(=O)CCNCc1ccc(-c2ccc3ncnc(Nc4ccc(OCc5cccc(F)c5)c(Cl)c4)c3c2)o1 [Lapatinib] (tested concentration range 0.1-1000 nM) | 0.1 | 0 | 0 | 0.3 | 0 | 0 | 0 | 0 | 0 | 0 | 0
2 | O=C(Nc1cnn2ccc(N3CCC[C@@H]3c3cc(F)ccc3F)nc12)N1CC[C@H](O)C1 [Larotrectinib] (tested concentration range 0.1-1000 nM) | 0 | 0 | 0 | 0 | 0 | 0 | 0 | 0 | 0 | 0 | 0
3 | Oc1ccc2c(c1)CC[C@H](c1ccccc1)[C@@H]2c1ccc(OCCN2CCCC2)cc1 [Lasofoxifene] (tested concentration range 0.1-1000 nM) | 0 | 0 | 0 | 0 | 0 | 0 | 0 | 0 | 1.3 | 0 | 0
4 | Nc1cccc2c1CN(C1CCC(=O)NC1=O)C2=O (stereo not drawn) [Lenalidomide] (tested concentration range 10-100000 nM) | 0 | 0 | 0 | 0 | 2.2 | 3 | 0 | 1.4 | 1.1 | 0 | 0
5 | COc1cc2nccc(Oc3ccc(NC(=O)NC4CC4)c(Cl)c3)c2cc1C(N)=O [Lenvatinib] (tested concentration range 0.2-2500 nM) | 4.1 | 5.8 | 3.8 | 1.8 | 4.3 | 3 | 0.9 | 2.1 | 0.3 | 0.1 | 0
6 | N#Cc1ccc(C(c2ccc(C#N)cc2)n2cncn2)cc1 [Letrozole] (tested concentration range 1-10000 nM) | 0 | 0 | 0 | 0 | 0 | 0 | 0 | 0 | 0 | 0 | 0
7 | O=C1CCc2c(Oc3ccc4c(c3)[C@@H]3[C@H](O4)[C@H]3c3nc4cc(C(F)(F)F)ccc4[nH]3)ccnc2N1 [Lifirafenib] (tested concentration range 1-10000 nM) | 0 | 0.7 | 0.5 | 5.9 | 4.2 | 2.4 | 1.3 | 3.4 | 2.2 | 3.7 | 6.3
8 | C[C@]1(O)C[C@@H](c2nc(-c3ccc4ccc(-c5ccccc5)nc4c3)c3c(N)nccn32)C1 [Linsitinib] (tested concentration range 1-10000 nM) | 0 | 0.7 | 0.2 | 0.6 | 2.6 | 0 | 0 | 1.5 | 3.2 | 0.5 | 1.3
9 | Nc1nc(OCc2cc(Br)cs2)c2[nH]cnc2n1 [Lomeguatrib] (tested concentration range 1-10000 nM) | 0.1 | 0 | 0 | 0 | 1.4 | 0.1 | 0 | 0 | 0.2 | 0 | 0
10 | NC(=O)N1CCC(CC(=O)N2CCC([C@H]3c4ncc(Br)cc4CCc4cc(Cl)cc(Br)c43)CC2)CC1 [Lonafarnib] (tested concentration range 5-50000 nM) | 9.2 | 7.7 | 8.5 | 16.1 | 9.7 | 9 | 3.1 | 8.2 | 7.6 | 16.6 | 18.6
11 | C[C@H]1Oc2cc(cnc2N)-c2c(nn(C)c2C#N)CN(C)C(=O)c2ccc(F)cc21 [Lorlatinib] (tested concentration range 0.1-1000 nM) | 0 | 2.9 | 1.4 | 0 | 2.2 | 2.5 | 0 | 1.9 | 3.3 | 0.4 | 0.3
12 | Cc1c(F)cc(C(=O)NC2CC2)cc1-c1ccc(C(=O)NCC(C)(C)C)cn1 [Losmapimod] (tested concentration range 1-10000 nM) | 0 | 0 | 0 | 3.7 | 0 | 0 | 0 | 0 | 0 | 0 | 0
13 | CC[C@H](C)C(=O)O[C@H]1C[C@@H](C)C=C2C=C[C@H](C)[C@H](CC[C@@H]3C[C@@H](O)CC(=O)O3)[C@H]21 [Lovastatin] (tested concentration range 1-10000 nM) | 0.3 | 3 | 2.6 | 0 | 5.5 | 3.4 | 3.3 | 2.8 | 3.7 | 1.1 | 1
